According to US12448369B2 (Edgewise Therapeutics, Inc., priority 2023, dated 2025):
Marks after values point to notes of the source that are not given here.

Experiments:
[1] = test system: Rabbit Psoas myofibrils (skeletal myosin ATPase); assay: Myofibril ATPase assay, rabbit psoas (skeletal) myofibrils; type: biochemical
Procedure: (§1) Example 1. Myofibril ATPase Assay
(§2) Myofibril ATPase assays are known in the art to be useful in evaluating small molecules for the treatment of HCM and other cardiac indications. Myosin ATPase activity is assessed by using a coupled reaction system, in which ADP generated by the myosin ATPase function is coupled to the disappearance of NADH through the pyruvate kinase/lactate dehydrogenase (PK-LDH) system. ATPase activity produces ADP, which is used as a substrate for PK to produce pyruvate and regenerate ATP. The pyruvate is then used as a substrate by LDH to oxidize NADH to NAD+. The rate of the reaction is monitored through the time-dependent disappearance of NADH using absorbance at 340 nm, which, when the couple system is in stoichiometric excess, is directly correlated to the ATPase activity of the myosin. Inhibition of ATPase activity by the assayed compounds is indicated by a reduced rate of NADH loss, relative to vehicle-treated controls, over the experimental time window. Activation of ATPase activity by the assayed compounds is indicated by an increased rate of NADH loss, relative to vehicle-treated controls, over the experimental time window. Rabbit Psoas, Porcine atria, and Porcine ventricle are the primary sources of myofibril material.
(§3) Materials: The following stock solutions and reagents were used in the Myofibril ATPase Assay:
(§4) Stock Solutions of pCa buffer. Combine PIPES, CaCl2, and EGTA solutions with water. Adjust pH to 7.0 and bring final volume to 100 mL.
(§5) Buffer A & Buffer B. Prepare buffers A and B according to the table below.
(§6) Myofibril ATPase Assay Procedure: BSA, ATP, NADH, PEP, and DTT solutions were thawed at room temperature, then transferred to ice. Pellet-frozen myofibrils were transferred with approximately twice the required volume into a sufficiently large tube and capped. Myofibrils were thawed by rolling in a water bath for approximately 15 min at room temperature and cooled on ice. Buffers A and B were prepared by adjusting volumes as necessary for required number of wells and stored on ice. 0.5 μL of the compounds to be assayed were added into wells. 25 μL of Buffer A was dispensed into the wells, followed by 25 μL of Buffer B. The wells were measured for absorbance at 340 nm, using a kinetic protocol in which the wells are read every 1.5-2 min for 75 min. Assay data analysis was performed using a python script that filtered the raw data to retain those points falling between a starting and ending time and between a maximum and minimum absorbance, then used the filtered time-domain 340 nm absorbance data in each well to calculate a slope via linear regression analysis in units of mAU/min. Compound slopes were normalized between 100% and 0% activity, where 100% represented the slope of wells containing only compound vehicle, and fit to a 4-parameter logistic model. In addition to the fit parameters, the EC25% values were calculated, relative to the 100% normalized value. Additionally, the Y125 values were calculated for compounds that increased myosin ATP-ase activity. Fit parameters, calculated effective concentrations, filtered raw data, and calculated slopes were exported, in addition to compound-specific graphs of normalized ATPase activity versus concentration in μM. Each value reported in Table 5, Table 6, and Table 7 is either a Y75 value or a Y125 value. Values without a double cross sign, ‡, are Y75 values, which reflect the concentration required to reduce myosin ATP-ase activity by 25% (e.g., Y-axis activity value is 75% of initial value), relative to myosin ATP-ase activity in the absence of exogenous compound.
Skeletal Myofibril Isolation:
(§7) Myofibrils from various animals and tissue types were acquired from a variety of sources: rabbit psoas muscle was purchased from Pel-Freez Biologicals (Rogers, AR) and porcine cardiac muscle was purchased from Exemplar Genetics. All myofibrils were prepared using a method based upon those described in Herrmann et al. (1993) and summarized here. […]

[2] = test system: Porcine atria myofibrils (atrial myosin ATPase); assay: Myofibril ATPase assay, porcine atria myofibrils; type: biochemical
Procedure: as §1, §2, §3, §4, §5, §6, §7

[3] = target: T1, Porcine ventricle myofibrils (ventricular myosin ATPase) (Sus scrofa, UniProt P79293); assay: Myofibril ATPase assay, porcine ventricle myofibrils; type: biochemical, porcine (Yucatan minipigs)
T1 construct: Myofibrils from porcine cardiac muscle was isolated from the left ventricle of Yucatan minipigs; tissue Exemplar Genetics; host or cells: left ventricle of Yucatan minipigs, myofibrils prepared in house
Procedure: as §1, §2, §3, §4, §5, §6
Cardiac Myofibril Isolation:
Myofibrils from porcine cardiac muscle was isolated from the left ventricle of Yucatan minipigs. Myofibrils were prepared using a method based upon those described in Herrmann et al. (1993) and summarized here. […]

[4] = rabbit psoas myofibrils, Y75 value
[5] = porcine atria myofibrils, Y75 value (75% activity relative to no compound)
[6] = porcine ventricle myofibrils, Y75 value
[7] = Y75 value (no ‡ mark), porcine atria myofibrils
[8] = Y75 value (no ‡ mark), rabbit psoas myofibrils
[9] = Y75 value (no ‡ mark), porcine ventricle myofibrils

T1 sequence (P79293 whole entry): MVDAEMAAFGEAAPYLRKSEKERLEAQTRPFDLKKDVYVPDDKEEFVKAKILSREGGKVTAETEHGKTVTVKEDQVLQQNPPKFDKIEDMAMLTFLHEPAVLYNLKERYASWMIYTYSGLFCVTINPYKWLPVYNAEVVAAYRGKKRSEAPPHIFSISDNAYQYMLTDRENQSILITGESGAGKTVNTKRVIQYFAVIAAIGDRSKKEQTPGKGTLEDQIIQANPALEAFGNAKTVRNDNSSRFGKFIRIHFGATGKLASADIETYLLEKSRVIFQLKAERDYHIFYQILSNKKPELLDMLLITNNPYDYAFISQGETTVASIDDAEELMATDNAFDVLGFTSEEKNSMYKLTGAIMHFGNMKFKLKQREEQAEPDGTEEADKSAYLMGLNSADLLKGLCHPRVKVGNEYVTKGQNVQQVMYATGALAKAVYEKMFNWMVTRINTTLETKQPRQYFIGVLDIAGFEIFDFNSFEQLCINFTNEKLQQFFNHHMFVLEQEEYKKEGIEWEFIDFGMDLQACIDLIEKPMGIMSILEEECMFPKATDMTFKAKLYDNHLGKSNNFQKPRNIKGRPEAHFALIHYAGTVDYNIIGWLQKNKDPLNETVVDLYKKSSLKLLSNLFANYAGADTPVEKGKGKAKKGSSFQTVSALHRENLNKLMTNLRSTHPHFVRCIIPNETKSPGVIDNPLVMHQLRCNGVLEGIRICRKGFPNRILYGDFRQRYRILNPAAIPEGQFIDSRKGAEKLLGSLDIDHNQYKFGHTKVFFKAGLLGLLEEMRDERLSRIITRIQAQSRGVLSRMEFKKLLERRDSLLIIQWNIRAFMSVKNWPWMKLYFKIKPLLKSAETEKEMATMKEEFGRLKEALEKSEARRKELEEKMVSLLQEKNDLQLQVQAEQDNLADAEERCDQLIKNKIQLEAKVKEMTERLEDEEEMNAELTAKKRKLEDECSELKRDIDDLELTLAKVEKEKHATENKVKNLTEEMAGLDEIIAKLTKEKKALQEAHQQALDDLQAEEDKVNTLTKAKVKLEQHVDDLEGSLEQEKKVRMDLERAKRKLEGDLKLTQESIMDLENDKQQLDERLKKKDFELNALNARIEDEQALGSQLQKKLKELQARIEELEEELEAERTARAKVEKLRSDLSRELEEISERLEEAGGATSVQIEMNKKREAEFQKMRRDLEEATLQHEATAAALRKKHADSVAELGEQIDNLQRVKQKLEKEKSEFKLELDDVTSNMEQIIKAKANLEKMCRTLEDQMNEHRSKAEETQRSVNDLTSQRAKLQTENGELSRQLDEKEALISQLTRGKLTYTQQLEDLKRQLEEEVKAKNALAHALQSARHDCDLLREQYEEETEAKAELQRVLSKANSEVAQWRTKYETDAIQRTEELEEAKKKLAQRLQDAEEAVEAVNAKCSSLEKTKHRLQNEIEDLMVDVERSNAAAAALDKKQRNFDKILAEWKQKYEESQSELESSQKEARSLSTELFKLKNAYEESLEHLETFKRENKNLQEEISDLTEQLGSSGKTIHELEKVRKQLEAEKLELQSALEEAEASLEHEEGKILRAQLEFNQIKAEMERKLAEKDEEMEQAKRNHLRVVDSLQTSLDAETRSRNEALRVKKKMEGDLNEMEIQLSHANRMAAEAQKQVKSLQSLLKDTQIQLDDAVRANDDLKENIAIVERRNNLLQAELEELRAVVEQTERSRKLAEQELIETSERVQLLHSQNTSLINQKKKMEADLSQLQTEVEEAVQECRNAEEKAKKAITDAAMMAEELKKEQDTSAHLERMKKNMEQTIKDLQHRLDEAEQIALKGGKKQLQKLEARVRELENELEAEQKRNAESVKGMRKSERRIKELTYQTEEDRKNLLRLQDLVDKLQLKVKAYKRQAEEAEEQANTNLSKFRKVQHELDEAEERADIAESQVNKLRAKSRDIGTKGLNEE

SMILES	Atrial EC25 [2, 7]	Skeletal EC25 [1, 8]	Ventricular EC25 [3, 9]	also measured
COc1ccc([C@H](C)NC(=O)Cc2c(C)c3c(C)nccc3[nH]c2=O)cc1 (single isomer, unassigned) [compound 287]				Skeletal EC25 [1, 4]: 100.00 µM; Atrial EC25 [2, 5]: 100000 nM; Ventricular EC25 [3, 6]: 100.00 µM
Cc1c(C(F)(F)C(=O)NC(C)c2cccc(C#N)n2)c(=O)[nH]c2ccc(F)c(F)c12 (single isomer, unassigned) [Compound 2588]	100000 nM			Skeletal EC25 ([1]; ‡ Y125 value, not a Y75 value (125% activity relative to no compound), rabbit psoas myofibrils): 19.03‡ μM; Ventricular EC25 ([3]; ‡ Y125 value, not a Y75 value (125% activity relative to no compound), porcine ventricle myofibrils): 67.27‡ μM
Cc1c(CC(=O)N[C@H](C)c2ccc(C#N)cc2F)c(=O)[nH]c2ccc(F)c(C(F)(F)F)c12 [compound 37]	40 nM	0.02 µM	0.05 µM	
C[C@H](NC(=O)Cc1c(C2CC2)c2cc(F)ccc2[nH]c1=O)c1ncc(C#N)cn1 (single isomer, unassigned) [compound 2064]	77710 nM	0.26 µM	32.11 µM	
Cc1c(C(F)(F)C(=O)N[C@H](C)c2ncc(F)cc2F)c(=O)[nH]c2ccc(F)cc12 (single isomer, unassigned) [compound 4819]	280 nM	1.02 µM	2.65 µM	
Cc1c(CC(=O)N[C@H](CO)c2ccc(F)cc2F)c(=O)[nH]c2ccc(C#N)nc12 [compound 210]				Skeletal EC25 [1, 4]: 7.04 µM; Atrial EC25 [2, 5]: 30200 nM; Ventricular EC25 [3, 6]: 100.00 µM
Cc1c(C2(C(=O)N[C@H](C)c3ncc(C#N)cc3F)CC2)c(=O)[nH]c2cccc(C#N)c12 (single isomer, unassigned) [compound 2541]	330 nM	0.85 µM	0.70 µM	
CC(NC(=O)Cc1cc2cc(F)ccc2[nH]c1=O)c1cc(C#N)c(F)s1 (stereo not drawn) [compound 4002]				Skeletal EC25 ([1]; Y75 value: concentration required to reduce myosin ATP-ase activity by 25%, Rabbit Psoas Prep pCa 25 GEOM_MEAN): 4.10 µM; Atrial EC25 ([2]; Y75 value: concentration required to reduce myosin ATP-ase activity by 25%, Porcine Atria Prep pCa 25 GEOM_MEAN): 1600 nM; Ventricular EC25 ([3]; Y75 value: concentration required to reduce myosin ATP-ase activity by 25%, Porcine Ventricle Prep pCa 25 GEOM_MEAN): 100.00 µM
Cc1c(CC(=O)N[C@H](C)c2ccc(C#N)cn2)c(=O)[nH]c2cc(F)ccc12 [compound 1072]	17570 nM	100.00 µM	36.86 µM	
Cc1c(C(F)(F)C(=O)N[C@@H](C)c2ccc(F)cc2F)c(=O)[nH]c2ccc(F)cc12 [compound 4816]	150 nM	0.15 µM	0.26 µM	
Cc1c(CC(=O)N[C@H](C)c2ccc(C#N)nn2)c(=O)[nH]c2ccc(F)cc12 [compound 1119]	480 nM	0.22 µM	1.18 µM	
Cc1ccncc1[C@H](C)NC(=O)Cc1c(C)c2c(C)c(F)ccc2[nH]c1=O [compound 1047]	100000 nM	100 µM	1.13 µM	
C[C@@H](NC(=O)Cc1c(C2CC2)c2cc(F)ccc2[nH]c1=O)c1ncc(C#N)cn1 (single isomer, unassigned) [compound 2063]	210 nM	0.50 µM	100.00 µM	
C[C@H](NC(=O)Cc1c(C(F)(F)F)c2c(Cl)nccc2[nH]c1=O)c1ccc(F)cc1F [compound 428]				Skeletal EC25 [1, 4]: 0.09 µM; Atrial EC25 [2, 5]: 1350 nM; Ventricular EC25 [3, 6]: 1.94 µM
Cc1c([C@@H](C)C(=O)N[C@@H](C)c2ccc(F)cc2F)c(=O)[nH]c2ccnc(OC(F)(F)F)c12 (single isomer, unassigned) [compound 347]				Skeletal EC25 [1, 4]: 0.35 µM; Atrial EC25 [2, 5]: 940 nM; Ventricular EC25 [3, 6]: 20.36 µM
Cc1c(CC(=O)N[C@@H](CO)c2ccc(F)cc2F)c(=O)[nH]c2cccc(C#N)c12 (single isomer, unassigned) [compound 90]	23510 nM	1.26 µM	100.00 µM	
C[C@@H](NC(=O)C1(c2cc3c(F)c(F)ccc3[nH]c2=O)CC1)c1cnc(C#N)cn1 (single isomer, unassigned) [compound 4829]	450 nM	1.15 µM	6.13 µM	
Cc1c(C(F)(F)C(=O)N[C@@H](C)c2cc(C#N)ccn2)c(=O)[nH]c2ccc(F)cc12 (single isomer, unassigned) [compound 2576]	38950 nM	76.36 µM	100.00 µM	
Cc1c(CC(=O)N[C@H](CO)c2ccc(C#N)cc2F)c(=O)[nH]c2ccc(F)c(C3CC3)c12 [compound 71]	1100 nM	0.23 µM	8.50 µM	
Cc1c(C2(C(=O)N[C@H](C)c3nccc(C#N)n3)CC2)c(=O)[nH]c2ccc(F)cc12 (single isomer, unassigned) [compound 4841]	97500 nM	100.00 µM	100.00 µM	
C[C@H](NC(=O)[C@H](C)c1c(C(F)(F)F)c2cc(F)ccc2[nH]c1=O)c1ccc(F)cc1F (single isomer, unassigned) [compound 58]	60 nM	0.15 µM	1.32 µM	
Cc1nccc2[nH]c(=O)c([C@H](C)C(=O)N[C@H](C)c3ncc(C#N)cc3F)c(C)c12 (single isomer, unassigned) [compound 192]				Skeletal EC25 [1, 4]: 0.55 µM; Atrial EC25 [2, 5]: 590 nM; Ventricular EC25 [3, 6]: 14.65 µM
Cc1cc(F)cnc1[C@H](C)NC(=O)C(F)(F)c1c(C)c2cc(F)ccc2[nH]c1=O (single isomer, unassigned) [compound 4808]		100.00 µM	100.00 µM	
C[C@H](NC(=O)Cc1cc2c(O)nccc2[nH]c1=O)c1ccc(F)cc1F [compound 3013]				Skeletal EC25 [1, 4]: 100.00 µM; Ventricular EC25 [3, 6]: 100.00 µM
Cc1c(Cl)ccc2[nH]c(=O)c(CC(=O)N[C@@H](C)c3ncc(C#N)cc3F)c(C)c12 (single isomer, unassigned) [compound 2046]	50 nM		0.10 µM	
Cc1cc(F)cnc1[C@@H](C)NC(=O)C(F)(F)c1c(C)c2cc(F)ccc2[nH]c1=O (single isomer, unassigned) [compound 4807]		0.82 µM	1.39 µM	
Cc1c(C(F)(F)C(=O)N[C@H]2COc3cc(C#N)cc(F)c32)c(=O)[nH]c2ccc(F)cc12 (single isomer, unassigned) [compound 2554]	90 nM		0.20 µM	
C[C@H](NC(=O)[C@H](C)c1cc2c(C3CC3)nccc2[nH]c1=O)c1ccc(F)cc1F (single isomer, unassigned) [compound 3506]				Skeletal EC25 (Y125 value, marked ‡) ([1]; rabbit psoas myofibrils, Y125 value, not a Y75 value): 108.50‡ μM; Ventricular EC25 [3, 6]: 100.00 µM
